According to US20210253518A1, “KINASE INHIBITOR” (NISSAN CHEMICAL CORPORATION, priority 2018, published 2021):

Columns and labels:
[1] = system: YAP-regulated genes; test: DNA microarray gene expression in SKOV3 cells; type: cell-based, human; details: 10 μM
Description: According to the method of patent document (WO 2014/017513), a composition of McCoy's 5a medium (manufactured by Sigma-Aldrich) containing 0.015% (w/v) deacylated gellan gum (KELCOGEL CG-LA, manufactured by Sansho Co., Ltd.), 30 ng/mL human HB-EGF (manufactured by PEPROTECH), and 15% (v/v) FBS was prepared. Human ovarian cancer cell line SKOV3 cultured according to the protocol recommended by DS Pharma Biomedical Co., Ltd. was suspended in the medium and seeded on a 6 well plate (manufactured by Corning Incorporated, #3471) at 1,000,000 cells/3.3 mL/well. Successively, k-1:B-1 dissolved in DMSO was added to the cell suspension at a final concentration of 10 μM. After further culturing in a CO2 incubator at 37° C. for 6 or 24 hr, 11 mL of phosphate buffered saline (PBS, manufactured by Sigma-Aldrich Japan) was added to the cell culture medium and the cells were precipitated by a centrifugation treatment (400 G, 3 min). The supernatant was removed, the cells were suspended in PBS (10 mL), and further subjected to a centrifugation treatment (400 G, 5 min) to give cell pellets. Successively, total RNA (ribonucleic acid) was isolated from the obtained cells by using RNAeasy Mini Kit (manufactured by Qiagen). DNA microarray of this RNA was performed by HumanGene 2.0ST Array (manufactured by Affymetrix), and changes in the human gene expression due to the addition of the specific compound were comprehensively analyzed (gene analysis contract service of Kurabo Industries Ltd. was used, product number; GA0312).

[2] = system: YAP, phosphorylated YAP (Ser127), TAZ; test: Western blotting of YAP, phosphorylated YAP, TAZ in SKOV3 cells (2D and 3D culture); type: cell-based, human; details: 1, 5, 10 μM, 1 hr, both 2D culture and 3D culture, FIG. 1
Description: 2D culture conditions: Human ovarian cancer cell line SKOV3 cultured according to the protocol recommended by DS Pharma Biomedical Co., Ltd. was suspended in McCoy's 5a medium (manufactured by Sigma-Aldrich) containing 15% (v/v) FBS and seeded on a 100 mm plate (manufactured by Corning Incorporated, #430167) at 1,000,000 cells/10 mL and cultured in a CO2 incubator for 24 hr. Successively, k-1:B-1 dissolved in DMSO was added to the culture medium at a final concentration of 1, 5, 10 μM. As the control, the medium without addition and the medium added with DMSO were cultured. After 1 hr, the cells were washed 3 times with ice-cooled phosphate buffered saline (PBS, manufactured by Wako Pure Chemical Industries, Ltd.), 250 μL of RIPA Buffer (manufactured by Wako Pure Chemical Industries, Ltd.) containing a protease inhibitor cocktail (manufactured by Roche) was added, and the cells were lysed with a scraper. […] The supernatant was dispensed, the protein concentration was measured using BCA protein assay kit (manufactured by PIERCE), and then SDS (sodium dodecyl sulfate) gel electrophoresis was performed on the lysate. […] After incubation with a secondary antibody (manufactured by Horseradish peroxidase) linked with an anti-rabbit HRP (horseradish peroxidase) or an anti-mouse HRP, the protein was detected by a chemiluminescence detector (manufactured by BioRad) using ImmunoStar Zeta (manufactured by Wako Pure Chemical Industries, Ltd.).
3D culture conditions: According to the method of patent document (WO 2014/017513), a composition of McCoy's 5a medium (manufactured by Sigma-Aldrich) containing 0.015% (w/v) deacylated gellan gum (KELCOGEL CG-LA, manufactured by Sansho Co., Ltd.), 30 ng/mL human HB-EGF (manufactured by PEPROTECH), and 15% (v/v) FBS was prepared. […] The supernatant was dispensed, the protein concentration was measured using BCA protein assay kit (manufactured by PIERCE), and then SDS gel electrophoresis was performed on the lysate. […]

With CC/C(=N\NC(=O)C(C)Nc1ccccc1)c1ccc(O)c(C)c1O (centres unmarked) [k-1:B-1] the “AMOTL2 expression rate when no addition is 1” value ([1]; 6 hr later) was 6.92, the “ANKRD1 expression rate when no addition is 1” value ([1]; 6 hr later) was 35.3 and the “BIRC2 expression rate when no addition is 1” value ([1]; 6 hr later) was 1.27. The “CCND1 expression rate when no addition is 1” value ([1]; 6 hr later) was 1.63, the “CTGF expression rate when no addition is 1” value ([1]; 6 hr later) was 21.4 and the “CYR61 expression rate when no addition is 1” value ([1]; 6 hr later) was 29.6. For the same molecule, the “TGFB2 expression rate when no addition is 1” value ([1]; 6 hr later) was 3.63, the “AMOTL2 expression rate when no addition is 1” value ([1]; 24 hr later) was 7.89 and the “ANKRD1 expression rate when no addition is 1” value ([1]; 24 hr later) was 72.1. The “BIRC2 expression rate when no addition is 1” value ([1]; 24 hr later) was 1.44, the “CCND1 expression rate when no addition is 1” value ([1]; 24 hr later) was 2.01 and the “CTGF expression rate when no addition is 1” value ([1]; 24 hr later) was 23.2. The “CYR61 expression rate when no addition is 1” value ([1]; 24 hr later) was 26.9, the “TGFB2 expression rate when no addition is 1” value ([1]; 24 hr later) was 9.84 and the “phosphorylation of YAP” value [2] was “suppressed”. The “total TAZ protein amount in the cell” value [2] was “increased” and the “total YAP protein amount in the cell” value [2] was “increased”.
